# According to ChEMBL document CHEMBL1201862, “PubChem BioAssay data set” (2004):
# Calls of active or inactive are those of the source.
# How the values were obtained:
# H9c2 = experiment: cells; assay type: functional, cell-based; details: Rattus norvegicus, H9c2, Myocardium;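 further: confirmatory concentration-response retest of ultra-high-throughput screening hits for modulation of myocardial damage; cell death induced by hydrogen peroxide oxidative stress; compound pretreatment for 60 min then peroxide exposure for 2 h; potency is for protecting the cells against peroxide damage rather than for killing them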
# cells [1] = assay type: functional, cell-based
# cells [2] = assay type: functional, cell-based; remark: listed apart in the source
# Cytochrome P450 2D6 = Cytochrome P450 2D6 (Homo sapiens, UniProt P10635);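 further: CYP2D6 member of a cytochrome P450 panel assay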
# [3] = molecular target: T1, Replicative DNA helicase DnaB (Mycobacterium tuberculosis, UniProt P9WMR3); experiment: DnaB intein splicing inhibitors, dose response, biochemical, cell-free fluorescence (AID 449749); assay type: functional
# T1 sequence (P9WMR3 whole entry): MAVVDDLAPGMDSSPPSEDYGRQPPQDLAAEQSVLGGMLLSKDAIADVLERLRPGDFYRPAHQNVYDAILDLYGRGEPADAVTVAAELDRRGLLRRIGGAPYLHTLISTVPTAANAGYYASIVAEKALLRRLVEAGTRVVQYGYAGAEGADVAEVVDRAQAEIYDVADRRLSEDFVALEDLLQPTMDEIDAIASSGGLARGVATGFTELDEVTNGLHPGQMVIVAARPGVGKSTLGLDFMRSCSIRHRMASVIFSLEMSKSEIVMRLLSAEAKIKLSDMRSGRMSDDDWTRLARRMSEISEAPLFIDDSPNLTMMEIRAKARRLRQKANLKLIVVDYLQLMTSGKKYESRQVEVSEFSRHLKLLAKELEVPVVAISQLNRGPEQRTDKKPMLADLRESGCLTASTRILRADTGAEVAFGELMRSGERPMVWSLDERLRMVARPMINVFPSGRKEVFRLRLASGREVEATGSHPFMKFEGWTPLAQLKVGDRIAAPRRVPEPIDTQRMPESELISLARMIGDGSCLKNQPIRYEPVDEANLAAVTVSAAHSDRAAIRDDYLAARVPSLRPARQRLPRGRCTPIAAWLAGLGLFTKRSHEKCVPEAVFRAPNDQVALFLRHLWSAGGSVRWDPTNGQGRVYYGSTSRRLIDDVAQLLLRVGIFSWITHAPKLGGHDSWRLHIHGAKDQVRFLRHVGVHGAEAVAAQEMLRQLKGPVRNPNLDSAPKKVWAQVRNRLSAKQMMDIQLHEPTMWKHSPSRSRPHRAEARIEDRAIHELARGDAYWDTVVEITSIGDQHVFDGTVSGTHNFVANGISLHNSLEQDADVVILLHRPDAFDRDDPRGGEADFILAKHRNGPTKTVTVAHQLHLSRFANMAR
# Protein RecA = molecular target: T2, Protein RecA (Mycobacterium tuberculosis, UniProt P9WHJ3); experiment: Fluorescence Cell-Free Homogeneous Dose Retest to Identify Inhibitors of RecA-Intein Splicing Activity. [Related pubchem assays (depositor defined):AID2097, AID2223, AID489010, AID492950]; assay type: functional
# T2 sequence (P9WHJ3 whole entry): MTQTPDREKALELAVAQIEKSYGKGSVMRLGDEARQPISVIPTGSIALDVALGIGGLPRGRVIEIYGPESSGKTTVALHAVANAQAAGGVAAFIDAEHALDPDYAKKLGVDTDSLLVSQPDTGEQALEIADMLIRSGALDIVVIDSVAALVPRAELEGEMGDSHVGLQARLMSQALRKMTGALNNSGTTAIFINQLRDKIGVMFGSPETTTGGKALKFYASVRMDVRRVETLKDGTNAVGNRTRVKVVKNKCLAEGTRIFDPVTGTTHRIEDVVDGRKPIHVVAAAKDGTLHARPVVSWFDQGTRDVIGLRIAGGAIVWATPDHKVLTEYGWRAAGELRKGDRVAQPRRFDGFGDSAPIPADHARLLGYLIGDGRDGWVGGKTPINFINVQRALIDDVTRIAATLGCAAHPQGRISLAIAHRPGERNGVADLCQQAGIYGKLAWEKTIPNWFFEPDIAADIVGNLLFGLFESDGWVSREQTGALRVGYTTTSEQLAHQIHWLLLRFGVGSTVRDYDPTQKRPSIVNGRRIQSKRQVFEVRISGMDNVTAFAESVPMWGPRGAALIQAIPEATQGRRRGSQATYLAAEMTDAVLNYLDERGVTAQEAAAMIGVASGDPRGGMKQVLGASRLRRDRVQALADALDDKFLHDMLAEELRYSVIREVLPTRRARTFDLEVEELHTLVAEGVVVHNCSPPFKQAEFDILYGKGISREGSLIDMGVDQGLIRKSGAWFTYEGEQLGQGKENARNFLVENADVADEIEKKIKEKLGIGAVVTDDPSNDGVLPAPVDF
# Cytochrome P450 3A4 = Cytochrome P450 3A4 (Homo sapiens, UniProt P08684);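 further: CYP3A4 tested as one member of a cytochrome P450 panel screen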
# [4] = tested on: Streptococcus sp. 'group A'; experiment: growth inhibition of control SK(-) GAS strain, dose response, counter-screen for streptokinase expression inhibitor project, luminescence, kanamycin, BacTiterGlo, confirmation (AID 1900); assay type: functional, organism-based
# Vero = experiment: cells; assay type: functional; details: Chlorocebus sabaeus
# Streptokinase A = molecular target: T3, Streptokinase A (Streptococcus pyogenes serotype M1, UniProt P10520); experiment: S. pyogenes streptokinase expression inhibitors, potency, dose response, plasminogen activation absorbance, OD405 (AID 1914); assay type: functional, Streptococcus pyogenes M1 GAS;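 further: secreted streptokinase activity via plasminogen activation per viability signal from cell pellet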
# T3 sequence (P10520 whole entry): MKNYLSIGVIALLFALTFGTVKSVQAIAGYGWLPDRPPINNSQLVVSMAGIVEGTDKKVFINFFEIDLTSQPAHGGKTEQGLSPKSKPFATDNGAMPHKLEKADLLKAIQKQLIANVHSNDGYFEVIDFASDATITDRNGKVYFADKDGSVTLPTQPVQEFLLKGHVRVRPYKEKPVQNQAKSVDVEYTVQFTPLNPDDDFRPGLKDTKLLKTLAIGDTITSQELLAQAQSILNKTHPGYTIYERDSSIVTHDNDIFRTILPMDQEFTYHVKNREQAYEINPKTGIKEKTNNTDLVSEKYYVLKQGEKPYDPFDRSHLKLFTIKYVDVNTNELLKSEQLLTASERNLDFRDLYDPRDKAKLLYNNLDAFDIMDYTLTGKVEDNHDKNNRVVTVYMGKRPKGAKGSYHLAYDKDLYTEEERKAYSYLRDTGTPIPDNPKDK
# Streptococcus = experiment: Group A Streptococcus viability loss, dose response, counter-screen for streptokinase expression inhibitor project, luminescence, BacTiterGlo (AID 1915); assay type: functional, organism-based;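 further: potency for reduction of bacterial viability or growth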
# [5] = molecular target: T4, Corticotropin-releasing factor receptor 2/Corticotropin-releasing factor-binding protein (Homo sapiens, UniProt P24387+Q13324); experiment: Dose Response confirmation of uHTS hits for small molecule antagonists of the CRF-binding protein and CRF-R2 receptor complex.; assay type: functional; details: read-out: IC50_Mean
# T4 sequence (Q13324 whole entry): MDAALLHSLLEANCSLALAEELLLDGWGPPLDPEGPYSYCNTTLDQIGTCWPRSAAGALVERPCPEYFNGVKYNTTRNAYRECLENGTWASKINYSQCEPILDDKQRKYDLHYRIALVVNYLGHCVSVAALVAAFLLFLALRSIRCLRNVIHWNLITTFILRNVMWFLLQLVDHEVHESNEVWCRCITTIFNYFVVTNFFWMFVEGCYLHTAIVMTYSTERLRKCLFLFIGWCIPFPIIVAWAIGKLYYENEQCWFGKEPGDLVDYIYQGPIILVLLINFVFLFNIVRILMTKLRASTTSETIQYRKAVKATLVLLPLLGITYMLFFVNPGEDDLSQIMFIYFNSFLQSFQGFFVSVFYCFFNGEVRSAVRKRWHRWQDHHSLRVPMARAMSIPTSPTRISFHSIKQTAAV
# T4 sequence (P24387 whole entry): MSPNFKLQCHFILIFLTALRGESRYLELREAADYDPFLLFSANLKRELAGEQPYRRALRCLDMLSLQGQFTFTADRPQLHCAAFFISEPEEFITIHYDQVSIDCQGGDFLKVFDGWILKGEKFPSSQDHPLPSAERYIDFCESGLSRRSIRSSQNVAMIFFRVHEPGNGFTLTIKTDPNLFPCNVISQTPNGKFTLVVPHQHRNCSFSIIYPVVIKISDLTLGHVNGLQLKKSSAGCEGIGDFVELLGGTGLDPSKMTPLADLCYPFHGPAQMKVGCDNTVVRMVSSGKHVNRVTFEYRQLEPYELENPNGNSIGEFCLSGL
# [6] = molecular target: T4, Corticotropin-releasing factor receptor 2/Corticotropin-releasing factor-binding protein; experiment: activators of CRF receptor 2 with binding protein – uHTS hits, confirmation (AID 602473); assay type: functional; details: read-out: EC50_Mean
# [7] = molecular target: T5, Ubiquitin-conjugating enzyme E2 N (Homo sapiens, UniProt P61088); assay type: functional;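 further: Dose-response confirmation in a TR-FRET assay detecting UBC13-driven polyubiquitin chain formation, inhibition measured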
# T5 sequence (P61088 whole entry): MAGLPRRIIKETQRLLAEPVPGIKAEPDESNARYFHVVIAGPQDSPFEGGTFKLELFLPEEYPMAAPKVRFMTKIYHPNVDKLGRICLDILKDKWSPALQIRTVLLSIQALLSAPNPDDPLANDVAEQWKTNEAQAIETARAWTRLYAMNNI
# INS1 = experiment: beta cell apoptosis inhibitors, cytokine rescue, dose response, luminescence, retest (AID 449756); assay type: functional, cell-based; details: Rattus norvegicus;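 further: cell death triggered by IL-1 beta plus TNF-alpha plus IFN-gamma mixture; protective hits raise ATP signal compared with cytokine alone wells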
# [8] = microbe, parasite or virus in culture; assay type: functional; details: Mycobacterium tuberculosis
# Sequence of Cytochrome P450 2D6 (P10635 whole entry): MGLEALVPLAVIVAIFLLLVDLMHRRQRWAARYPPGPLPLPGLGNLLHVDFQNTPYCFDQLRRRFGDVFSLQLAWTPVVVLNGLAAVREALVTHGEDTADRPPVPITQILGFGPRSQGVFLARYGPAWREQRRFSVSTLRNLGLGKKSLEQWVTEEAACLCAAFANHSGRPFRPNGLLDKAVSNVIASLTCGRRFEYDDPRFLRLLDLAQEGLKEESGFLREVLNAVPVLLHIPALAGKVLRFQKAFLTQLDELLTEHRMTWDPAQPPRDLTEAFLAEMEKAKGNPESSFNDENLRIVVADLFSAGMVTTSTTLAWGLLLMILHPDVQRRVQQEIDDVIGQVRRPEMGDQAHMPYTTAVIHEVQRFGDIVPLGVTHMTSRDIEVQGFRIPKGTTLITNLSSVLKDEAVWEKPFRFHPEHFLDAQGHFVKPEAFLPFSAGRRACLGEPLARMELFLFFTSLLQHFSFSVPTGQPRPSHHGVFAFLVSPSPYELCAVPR
# Sequence of Cytochrome P450 3A4 (P08684 whole entry): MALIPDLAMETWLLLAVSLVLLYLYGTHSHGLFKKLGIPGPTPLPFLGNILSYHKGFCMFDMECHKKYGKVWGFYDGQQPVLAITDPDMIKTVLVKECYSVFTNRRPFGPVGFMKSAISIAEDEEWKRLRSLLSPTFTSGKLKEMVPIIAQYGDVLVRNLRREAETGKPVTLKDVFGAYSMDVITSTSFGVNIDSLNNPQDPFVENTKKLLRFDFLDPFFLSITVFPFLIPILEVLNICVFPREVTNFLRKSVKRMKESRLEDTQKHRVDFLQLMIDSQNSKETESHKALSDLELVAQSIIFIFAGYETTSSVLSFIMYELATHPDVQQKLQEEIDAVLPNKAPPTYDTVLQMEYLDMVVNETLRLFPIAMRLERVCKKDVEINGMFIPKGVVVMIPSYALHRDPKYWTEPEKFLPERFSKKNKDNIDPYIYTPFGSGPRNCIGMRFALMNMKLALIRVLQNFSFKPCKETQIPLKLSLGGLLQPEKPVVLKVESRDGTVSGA
smiles,measurement,setting,value
CN1CCN(Cc2nc(O)c3ccccc3n2)CC1,IC50,H9c2,24 µM (active)
O=C(CSc1nnc(Cc2cccs2)n1CCc1ccccc1)N1CCCc2ccccc21,IC50,H9c2,> 79 µM (inactive)
NC(=O)c1nsc(C(=O)N(CCc2ccccc2)C(C(=O)NC2CCCC2)c2ccco2)c1N (centres undefined),IC50,H9c2,> 79 µM (inactive)
COc1ccc(NC(=O)CNC(=O)Cc2cccc3ccccc23)c(OC)c1,EC50,cells [1],> 350 µM (not active)
same,EC50,cells [2],> 350 µM (not active)
CC(=O)N1CCC2(CCCN(c3ncccn3)C2)CC1,AC50,Cytochrome P450 2D6,31.6 µM (inconclusive)
COc1cc(SC)ccc1C(=O)Nc1ccc(C)cc1C,EC50,cells [1],> 350 µM (not active)
same,EC50,cells [2],5.81 µM (active)
Cc1ccc(-n2nc(C)c3c2OC(N)=C(C#N)C3c2ccco2)cc1 (centres undefined),AC50,[3],35.1 µM (inconclusive)
same,EC50,Protein RecA,6.22 µM (inconclusive)
same,AC50,Cytochrome P450 3A4,17.8 µM (inconclusive)
CC(C)(C)NC(=O)COC(=O)c1ccc(Cl)nc1,EC50,cells [1],> 350 µM (not active)
same,EC50,cells [2],> 350 µM (not active)
N#Cc1ccc(CN2CCC3(CC2)CCN(C(=O)c2cccc(F)c2)CC3)cc1,AC50,Cytochrome P450 2D6,12.6 µM (inconclusive)
Cc1cc(C)cc(N(CC(=O)NCCSc2ccccn2)S(=O)(=O)c2ccccc2)c1,AC50,Cytochrome P450 2D6,11.2 µM (inconclusive)
COc1ccc(NC(=S)N2CCN(C(=O)c3ccccc3)CC2)cc1,EC50,cells [1],> 350 µM (not active)
same,EC50,cells [2],> 350 µM (not active)
Cc1ccc(N=Nc2ccc(O)c(P(=O)(c3ccccc3)c3ccccc3)c2)cc1,EC50,[4],3.58 µM (active)
same,CC50,Vero,> 25 µM (active)
same,EC50,Streptokinase A,> 150 µM (not active)
same,EC50,Streptococcus,110 µM (active)
same,IC50,[5],> 47.1 µM (inactive)
same,EC50,[6],> 53 µM (inactive)
O=C(CN1C(=O)S/C(=C\C=C\c2ccccc2)C1=O)Nc1ccc(C(=O)O)cc1,AC50,[3],177 µM (active)
same,EC50,Protein RecA,> 380 µM (inactive)
CCOc1ccc(N(C(=O)c2snc(C(N)=O)c2N)C(C(=O)NC2CCCC2)C(C)C)cc1 (centres undefined),IC50,[7],> 20 µM (inactive)
CCCNC(=O)c1c(N)n(-c2cccc(OC)c2)c2nc3ccccc3nc12,IC50,H9c2,28.5 µM (active)
same,AC50,INS1,36.8 µM (active)
COc1cc2c(cc1OC)C1(Nc3c-2c(-c2ccccc2)nn3-c2ccccc2)C(=O)Nc2ccccc21 (centres undefined),CC50,[8],10.4 µM (active)
Cn1ncc(Cl)c1C(=O)Nc1nc2ccc(Cl)cc2s1,EC50,cells [1],> 350 µM (not active)
same,EC50,cells [2],0.85 µM (active)
COc1cc(C(c2c(C)n[nH]c2O)c2c(C)n[nH]c2O)cc(Cl)c1O,AC50,[3],2.6 µM (active)
same,EC50,Protein RecA,0.453 µM (active)
C=CCn1c(Cc2cccs2)nnc1SCC(=O)Nc1ccc(C(=O)OCC)cc1,CC50,[8],> 40 µM (active)
O=C(CCc1nc(O)c2ccccc2n1)N1CCN(c2ccc(F)cc2)CC1,IC50,H9c2,> 79 µM (inactive)
Cc1cc(C)cc(C(=O)Nc2ccc(NC(=O)c3cccs3)cc2)c1,IC50,H9c2,> 79 µM (inactive)
O=C(C(=O)N1CCOCC1)c1cn(Cc2ccccc2)c2ccccc12,IC50,[7],> 20 µM (inactive)
Cc1nc2ccccc2c2c1C(=O)N(C)C2=O,AC50,[3],4.71 µM (active)
same,EC50,Protein RecA,0.794 µM (active)
CC(C)C1Nc2ccc(C(=O)N3CCN(c4ccccn4)CC3)cc2NC1=O (centres undefined),IC50,H9c2,21.2 µM (active)
O=C(N/N=C/c1ccc2c(c1)OCO2)c1ccc(NC(=O)c2ccccc2Cl)cc1,IC50,H9c2,9.19 µM (active)
Oc1c(Cl)cc(Cl)cc1/C=N/c1ccc(N2CCOCC2)cc1,IC50,H9c2,> 79 µM (inactive)
CCOC(=O)C1=C(c2ccccc2)N=c2s/c(=C\c3ccco3)c(=O)n2C1c1cccs1 (centres undefined),AC50,Cytochrome P450 2D6,15.8 µM (inconclusive)
same,AC50,Cytochrome P450 3A4,22.4 µM (inconclusive)
